From patent US20170355736A1, “MORTALIN PEPTIDES AND ANTIBODIES AND USES THEREOF FOR INHIBITING MORTALIN ACTIVITY AND TREATING A DISEASE ASSOCIATED WITH A PATHOLOGICAL CELL” (Ramot at Tel-Aviv University Ltd., priority 2014, published 2017)

Key:
mortalin-C9 binding = mortalin-C9 binding (Homo sapiens, UniProt P02748); assay: ELISA of mortalin binding to C9 with or without mortalin peptides; set-up: key: ↑: enhance; ↓: inhibit; ↑↓: effect depends on dose/time; —: no effect; conditions: summary of in vitro effects
Experimental: FIG. 1 is a histogram depicting results of ELISA (enzyme-linked immunosorbent assay) which detected binding of mortalin to C9 in the presence or absence of various mortalin peptides. Purified human C9 (0.057 μM) was attached overnight at 4° C. to wells of a 96-wells plate and then the excess of C9 was washed. Following, His-tagged recombinant mortalin (0.007 μM) was added to the wells for 1 hour at 37° C. with or without the designated peptides (each at a concentration of 170 μM), which were dissolved in 1% BSA (bovine serum albumin). Following incubation with the mortalin and peptides the wells were washed, treated for 1 hour at 37° C. with mouse anti-His antibody (diluted 1:1000) followed by 1 hour incubation at room temperature with peroxidase-labeled goat anti-mouse IgG (diluted 1:10,000), developed with O-phenylenediamine (OPD) and analyzed by an ELISA reader at 492 nm. […]
Methods of detecting the binding between mortalin and C9 are known in the art [Pilzer et al. Int Immunol (2005) 17:1239-1248; Pilzer et al. Int J Cancer (2010). […] After incubation of the C9 and mortalin, the excess of the labeled mortalin and of the peptide is removed by washing the plate, and the amount of labeled mortalin which is bound to the surface-attached C9 protein is determined using an anti-His antibody (e.g., a mouse anti-His antibody). […]

[1] = tested on: primary B-CLL leukemia cells; assay: Direct cell killing of primary leukemia cell preparations, PI flow cytometry; format: cell-based, human; conditions: peptides with TAT sequence at C-terminal, 20 hours, 50 µM concentration
Experimental: (§1) FIG. 8 is a histogram depicting cell death of B-CLL leukemia cells by mortalin peptides. […] Mortalin peptides numbers 2, 7, 8, 10, 14 and 16 and a scrambled control peptide (PC) were tested. […] Following, the cells were labeled with PI and analyzed by Flow Cytometry. Percent of dead cells (PI positive) was calculated.
as §1, with “FIG. 9” for “FIG. 8”
FIG. 10 is a histogram depicting cell death of B-CLL leukemia cells by mortalin peptides. […] Following, the cells were labeled with PI and analyzed by Flow Cytometry. Percent of dead cells (PI positive) was calculated.
FIG. 11 is a histogram depicting cell death of B-CLL leukemia cells and normal mononuclear cells by mortalin peptides. […] Following, the cells were labeled with PI and analyzed by Flow Cytometry. Percent of dead cells (PI positive) was calculated.
Blood drawing from B-CLL patients was approved by the Helsinki Committee of Rabin Medical Center, Petach Tikvah, Israel. […] The cells were treated for 20 hours with the peptides at […] concentration and cell death was determined by propidium iodide labeling and analysis by flow cytometry. […]

[2] = tested on: leukemia and lymphoma cell lines; assay: Direct cell killing / direct toxicity (complement independent), overall statement; format: cell-based; set-up: key: ↑: enhance; ↓: inhibit; ↑↓: effect depends on dose/time; —: no effect; conditions: summary of in vitro effects; complement independent cytotoxicity; cell lines and primary B-CLL cells
Experimental: The toxic effect of these peptides was tested on 3 leukemia/lymphoma cell lines Raji (FIG. 5), Ramos (FIG. 6) and Z-138 (FIG. 7). The cells were treated for 24 hours with the peptides and cell death was determined by propidium iodide labeling and analysis by flow cytometry.
In summary, Table 6 below illustrates the relative effects of some of the peptides on mortalin-C9 binding, C9 polymerization, complement-dependent cytotoxicity and complement independent cytotoxicity (direct toxicity).

Raji cells = assay: Complement independent cytotoxicity, Annexin V/PI, FACS; format: cell-based, human; conditions: stand-alone treatment, 0.8 mM, 24 hours
Description: (§2) Then, the cells were labeled with Annexin/PI and analyzed by Flow Cytometry. FIG. 3A—a histogram depicting the percent of dead cells (Annexin and PI positive) as calculated. FIGS. 3B-D—representative images of cells in control (FIG. 3B) and peptide-treated groups [FIG. 3C (treated with peptide no. 14) and FIG. 3D (treated with peptide no. 16)] stained by DAPI and observed under a fluorescence microscope.
(§3) The complement independent cytotoxic effect of the peptides—To address the toxic effect of the peptides as single agents, the present inventor tested the effect of the peptides no. 14 and 16 on K562 and Raji human cancer cells. The cells were incubated with the peptides for 24-48 hours in growth medium and then tested for apoptosis using an Annexin V/PI (Propidium Iodide) staining kit followed by FACS analysis.

K562 cells [3] = assay: as above; format: cell-based, human; conditions: stand-alone treatment, 0.8 mM, 24 hours
Experimental: as §2, with “Raji or K562 cells were treated without (C) or with 2 mM peptides for 48 hours in their culture medium. Then,” for “Then,”
as §3

Purified human C9 = Purified human C9 (Homo sapiens, UniProt P02748); assay: Zinc-induced C9 polymerization, SDS-PAGE/Coomassie; format: biochemical
Experimental: FIGS. 2A-B are Coomassie blue stained gels depicting inhibition of C9 polymerization by mortalin or the isolated mortalin peptides. Purified human C9 ([…]) was mixed for 15 minutes at 37° C. with BSA ([…]) as control (lanes marked as “BSA”), mortalin ([…], lanes marked as “mot”) or mortalin peptides (1 mM, lanes marked by “p” and the indicated peptide numbers) that were freshly dissolved in Tris buffered saline (TBS); and then incubated with 42 μM ZnCl2 for 2 hours at 37° C. The first lane on the left, marked “C9” refers to a positive control of the purified C9 without BSA, without mortalin or without the isolated peptides. Samples were subjected to SDS-PAGE on a 2.5-14% acrylamide gradient gel and stained with Coomassie blue. The bands of poly C9 appearing on the top part of the gel are indicated. FIGS. 2A and 2B represent two independent experiments.
The effect of the peptides on C9 polymerization—Formation of the complement membrane pores requires that multiple C9 molecules undergo polymerization and generate the doughnut-shape transmembrane complex; thus the effect of the peptides on C9 polymerization was tested. C9 polymerization occurs during C5b-9 generation [Podack and Tschopp, Proc Natl Acad Sci USA. (1982) 79(2):574-8]. […] C9 was mixed with peptides and 42 μM ZnCl2 for 2 hours and the samples were analyzed by SDS-PAGE, on a 2.5-14% acrylamide gradient gel. […]

K562 cells [4] = assay: Complement-dependent cytotoxicity (CDC), antibody + normal human serum, PI inclusion/FACS; format: cell-based; conditions: summary of in vitro effects
Experimental: K562 cells were either pre-incubated with peptides (60 minutes at 37° C.) and then treated with Rabbit anti-K562 polyclonal antiserum (Ab) and normal human serum (as a source for complement) or treated with Ab and complement in presence of the peptide [Ziporen et al. J. Immunol. (2009) 182: 515-21]. Cell death was measured by PI (Propidium Iodide) inclusion and FACS analysis, after 1 hour treatment at 37° C. The effect of the peptides on complement-dependent cytotoxicity—The next objective was to determine which of the peptides could alter cell death and sensitize cancer cells to complement-dependent cytotoxicity (CDC). Thus, cells were incubated with the peptides prior to antibody and complement treatment (denoted herein as pre-incubation) or treated concomitantly with antibody and complement in the presence of the peptides (denoted herein as without pre-incubation). It should be noted that in cases where the peptide was incubated with the cells prior to addition of the antibody and complement (serum) (noted as “preincubation”) cell cytotoxicity begins as complement independent, and then, upon addition of the antibody and complement can continue as complement dependent. […]

Chain of Purified human C9 (P02748 22-559): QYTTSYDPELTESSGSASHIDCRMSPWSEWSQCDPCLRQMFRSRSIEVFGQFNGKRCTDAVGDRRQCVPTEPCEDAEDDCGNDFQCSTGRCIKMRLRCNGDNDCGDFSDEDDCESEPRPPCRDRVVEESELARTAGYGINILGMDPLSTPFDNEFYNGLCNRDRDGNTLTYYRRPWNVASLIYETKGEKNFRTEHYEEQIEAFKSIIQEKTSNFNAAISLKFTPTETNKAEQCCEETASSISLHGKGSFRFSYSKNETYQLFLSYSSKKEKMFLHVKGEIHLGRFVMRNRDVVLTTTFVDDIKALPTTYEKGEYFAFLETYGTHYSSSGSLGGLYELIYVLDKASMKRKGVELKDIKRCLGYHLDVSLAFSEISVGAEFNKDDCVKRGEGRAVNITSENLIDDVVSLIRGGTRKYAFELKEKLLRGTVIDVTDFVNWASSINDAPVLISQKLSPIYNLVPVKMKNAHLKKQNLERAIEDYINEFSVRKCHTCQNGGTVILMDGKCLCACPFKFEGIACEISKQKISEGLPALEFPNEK
Chain of mortalin-C9 binding (P02748 22-559): as above

Compound	Mortalin-C9 binding (mortalin-C9 binding)	cell killing effect on primary leukemia cells [1]	Direct toxicity [2]	capacity to induce apoptosis, TAT-modified versus native peptide no: 14 (Raji cells)	capacity to induce apoptosis, TAT-modified versus native peptide no: 14 (K562 cells [3])	effect on C9 polymerization (Purified human C9; peptides 1 mM, mortalin 1.4 mM, 42 μM ZnCl2, 2 hours, 37° C., poly C9 band on gel)	C9 polymerization (Purified human C9; summary of in vitro effects)	Effect on CDC (K562 cells [4])
CSCC[C@H](NC(=O)[C@H](Cc1ccc(O)cc1)NC(=O)[C@H](CC(C)C)NC(=O)[C@H](CCC(=O)O)NC(=O)[C@H](CO)NC(=O)[C@H](CCCCN)NC(=O)[C@H](C)NC(=O)[C@H](CCCCN)NC(=O)[C@H](CCC(=O)O)NC(=O)[C@H](C)NC(=O)[C@H](C)NC(=O)[C@H](CCC(=O)O)NC(=O)[C@H](CCCNC(=N)N)NC(=O)[C@@H](NC(=O)[C@H](CCCNC(=N)N)NC(=O)[C@H](CCC(N)=O)NC(=O)[C@H](CC(C)C)NC(=O)[C@H](C)NC(=O)[C@H](CCSC)NC(=O)[C@@H](N)CC(N)=O)C(C)C)C(=O)NCC(=O)N[C@@H](CCCNC(=N)N)C(=O)N[C@@H](CCCCN)C(=O)N[C@@H](CCCCN)C(=O)N[C@@H](CCCNC(=N)N)C(=O)N[C@@H](CCCNC(=N)N)C(=O)N[C@@H](CCC(N)=O)C(=O)N[C@@H](CCCNC(=N)N)C(=O)N[C@@H](CCCNC(=N)N)C(=O)N[C@@H](CCCNC(=N)N)C(=O)O [Peptide 8, NMALQRVREAAEKAKSEL]	—	cell killing effect	↑ (*)—					
MVKNAEKYAEEDRYMGRKKRRQRRR (synthetic peptide (TAT modified peptide 14)) [TAT-peptide no: 14]				markedly enhanced the capacity of peptide no: 14 to induce apoptosis	markedly enhanced the capacity of peptide no: 14 to induce apoptosis			
Mortalin: human mortalin protein, member of the HSP70 family (SEQ ID NO: 24), recombinant			—			completely inhibited C9 polymerization	↓↓↓	↓↓↓
